What is called MIC is the lowest concentration found to suppress growth.

The values that follow come from patent publication US10273272B2, “Antimicrobial peptides” (Amprologix Limited, priority 2014, dated 2019).

Values after ≈ are worked out from the molar mass of the structure shown. Read-outs that look alike come from different tables or passages of the source. Residues, ends and D or L forms follow the SMILES beside them. No end group written: not given here. Where only a bound is given, the exact number is not on record here.

Data set [1] deals with E. coli. The class given is cell-based. As to conditions: for Average MIC: average of triplicate experiments, Table 5. As to the method:
(§1) A series of derivatives of the NI0138-51 (SEQ ID NO:12) truncation were carried out with a view to maintaining stability of the helix and/or increasing net positive charge of the peptides (Table 3). Minimum inhibitory concentrations (MICs) were determined for each derivative against a range of Gram positive and Gram negative organisms by a modified 2-fold microtitre broth dilution method (Wu and Hancock, J Biol Chem 1999; 274: 29-35) (Table 2). […] This could not have been predicted.

In data set [2] the test system is N. lactamica. It counts as cell-based. The protocol: as §1
Data set [3] has as its system P. aeruginosa. The class given is cell-based. As to the method:
as §1

Data set [4] deals with S aureus 1195. It counts as cell-based. As to the method:
as §1

The subject of data set [5] is haemolysis. The data set can be described thus: Haemolysis assay (in vitro toxicity testing). The class given is cell-based. The following applies: summary of Table 6. As to the method:
In addition, in vitro toxicity testing (haemolysis assays) indicates a lack of toxicity at levels well above MIC for some peptides, indicating potential for a wide therapeutic window (Table 6). […] Since increased net charge is known to be associated with higher levels of haemolysis, (Dhople and Nagaraj, Peptides 2005: 26: 217-225), this was not wholly unexpected.
Experiments were conducted to assess the percentage haemolysis against peptide concentration for peptides SEQ ID NOs: 4, 5, 6 and 7 against full length epidermicin (SEQ ID NO:10) and SEQ ID NO:12.

Data set [6] concerns S. Hominis. The class given is cell-based. The protocol: (§2) Experiments were conducted in which the full-length epidermicin peptide (51 amino acids, SEQ ID NO:10) was truncated to yield the derivatives shown in FIG. 1 (SEQ ID NOs:11 to 19). NI011-37 (SEQ ID NO:11) Is the region most similar to other peptides in the public domain, NI0138-51 (SEQ ID NO:12) is the region that is most unique with respect to other peptides in the public domain. All other truncations have been carried out by removing residues from the amino-terminal end of the peptide to each lysine residue (K). Lysine is important in antimicrobial peptides as it contributes to the net positive charge, which is thought to have a key role in the mode of action of ‘cationic’ peptides, like NI01 (SEQ ID NO:10).

Data set [7] has as its system S. aureus 1195. The class given is cell-based. As to the method: as §2
Data set [8] has as its system S. saprophyticus. The class given is cell-based. As to the method:
as §2

In data set [9] the test system is MRSA. The class given is cell-based, Staphylococcus aureus. As to the method:
as §2

In data set [10] the test system is Gram positive and negative bacteria. Put plainly: Antimicrobial activity against drug-resistant pathogens, summary in words. The class given is cell-based. As to conditions: summary of Table 2. As to the method: as §1
Data set [11] has as its system Klebsiella (K. pneumoniae). It counts as cell-based. The protocol:
as §1

For data set [12], the system named is VISA. The class given is cell-based. As to the method:
as §1

As for `CC[C@H](C)[C@H](NC(=O)[C@H](CCC(N)=O)NC(=O)[C@H](CCCCN)NC(=O)[C@H](Cc1ccc(O)cc1)NC(=O)[C@@H](NC(=O)[C@H](Cc1c[nH]c2ccccc12)NC(=O)[C@H](CCCCN)NC(=O)[C@H](Cc1ccccc1)NC(=O)[C@H](CO)NC=O)[C@@H](C)CC)C(=O)N[C@@H](CCCCN)C(=O)N[C@@H](CCCCN)C(=O)N[C@@H](CC(C)C)C(=O)N[C@@H](Cc1c[nH]c2ccccc12)C(=O)N[C@@H](C)C(=O)O` [SEQ ID NO:4, formyl-SFKWIYKQIKKLWA] (HELM PEPTIDE1{[O=C[*:2]].S.F.K.W.I.Y.K.Q.I.K.K.L.W.A}$$$$V2.0; C-terminus assumed), the MIC in data set [1] (E. coli 50, Table 2) came to 2.3 µg/mL (≈ 1.23 µM); in data set [1] (E. coli 178, Table 2), 1.3 µg/mL (≈ 0.696 µM); in data set [1] (E. coli DH5α, Table 2), 1.5 µg/mL (≈ 0.803 µM); in data set [1] (E.coli 177, Table 2), 2 µg/mL (≈ 1.07 µM); in data set [2], 6.7 µg/mL (≈ 3.59 µM); in [3] it was 6.7 µg/mL (≈ 3.59 µM). This compound also gave a minimum inhibitory concentration (MIC) in data set [4] of 1.7 µg/mL (≈ 0.91 µM). The “haemolytic activity / toxicity, in words” value in data set [5] is “higher levels of haemolytic activity”.
In the case of “KGTILKWINAGQSFEWIYKQIKKLWA [SEQ ID NO:17]”, the MIC came out at 16 µg/mL in [6], 8 µg/mL in data set [7] and 4 µg/mL in [8].
For “KHKGTILKWINAGQSFEWIYKQIKKLWA [SEQ ID NO:16]”, the MIC is 4 µg/mL in data set [6], 8 µg/mL in [7], 8 µg/mL in [8] and 12 µg/mL in data set [9].
“KLIQFLATKGQKYVSLAWKHKGTILKWINAGQSFEWIYKQIKK [SEQ ID NO:13]”: the MIC in data set [6] is 16 µg/mL; in [7], 8 µg/mL; in data set [8], 8 µg/mL.
Turning to “KYVSLAWKHKGTILKWINAGQSFEWIYKQIKKLWA [SEQ ID NO:15]”, the MIC in [6] was 6 µg/mL; in [7], 8 µg/mL; in data set [8], 4 µg/mL.
For “SFEWIKYQIKKLWA [SEQ ID NO:2, SFEWIKYQIKKLWA]”, the “Average MIC” value in data set [1] (E. coli 49) amounted to 24 µg/mL; in data set [1] (E. coli 50) it was 27 µg/mL; in data set [1] (E. coli 177), 19 µg/mL; in data set [1] (E. coli 178), 27 µg/mL; in [1] (E. coli 187), 17 µg/mL; in data set [1] (E. coli DH5a), 17 µg/mL. Further, the “Average MIC” value in data set [4] was 9 µg/mL. For the same compound, the MIC was 27 µg/mL in data set [1] (E. coli 50, Table 2); 27 µg/mL in data set [1] (E. coli 178, Table 2); 17 µg/mL in [1] (E. coli DH5α, Table 2); 19 µg/mL in [1] (E.coli 177, Table 2); 37.3 µg/mL in data set [2]; >64 µg/mL in data set [3]. The compound further came in with a minimal inhibitory concentration (MIC) in [4] of 9 µg/mL. Also, the “antimicrobial activity against Gram positive and negative bacteria, in words” value in [10] is listed as “significantly reduced activity”.
As to “SFEWIYKQIKKLWA [SEQ ID NO:12, SFEWIYKQIKKLWA]”, the MIC in data set [6] is 4 µg/mL; in data set [7] it was 4 µg/mL; in data set [8], 4 µg/mL; in data set [9] it was 12 µg/mL; in [1] (E. coli 50, Table 2), 7 µg/mL; in [1] (E. coli 178, Table 2), 5 µg/mL. The minimal inhibitory concentration (MIC) in [1] (E. coli DH5α, Table 2) was 8 µg/mL; in data set [1] (E.coli 177, Table 2) it was 5 µg/mL; in data set [2], 10.6 µg/mL; in [3], 64 µg/mL. Besides, the “Average MIC” value in data set [1] (E. coli 49) was 9 µg/mL; in data set [1] (E. coli 50), 7 µg/mL; in [1] (E. coli 177), 5 µg/mL; in data set [1] (E. coli 178), 5 µg/mL; in data set [1] (E. coli 187) it was 5 µg/mL; in [1] (E. coli DH5a), 8 µg/mL. The “Average MIC” value in data set [4] worked out at 4 µg/mL. Further, the “haemolytic activity / toxicity, in words” value in [5] is “higher levels of haemolytic activity”.
On to “SFEWIYKQIKKLWAK [SEQ ID NO:6, SFEWIYKQIKKLWAK]”, for which the minimal inhibitory concentration (MIC) stood at 4 µg/mL in data set [1] (E. coli 50, Table 2); 8 µg/mL in data set [1] (E. coli 178, Table 2); 6.7 µg/mL in data set [1] (E. coli DH5α, Table 2); 4 µg/mL in [1] (E.coli 177, Table 2); 10.7 µg/mL in data set [11]; 21.3 µg/mL in [2]. Besides, the MIC in [3] was 32 µg/mL; in [4] it was 3.3 µg/mL; in data set [12], >64 µg/mL. Besides, the “haemolytic activity / toxicity, in words” value in data set [5] is reported as “higher levels of haemolytic activity”.
Turning to “SFEWIYKQIKKLWAKKK [SEQ ID NO:7, SFEWIYKQIKKLWAKKK]”, the MIC was determined as 4.3 µg/mL in data set [1] (E. coli 50, Table 2); 3.3 µg/mL in data set [1] (E. coli 178, Table 2); 4 µg/mL in data set [1] (E. coli DH5α, Table 2); 3 µg/mL in [1] (E.coli 177, Table 2); 37.3 µg/mL in data set [2]; 8 µg/mL in data set [3]. The minimum inhibitory concentration (MIC) in data set [4] came out at 1.7 µg/mL. Also, the “haemolytic activity / toxicity, in words” value in data set [5] is “relatively low levels of haemolysis”.
In the case of “SFEWIYKQIWKLKRGLA [SEQ ID NO:3, SFEWIYKQIWKLKRGLA]”, the “Average MIC” value was 19 µg/mL in data set [1] (E. coli 49); 11 µg/mL in data set [1] (E. coli 50); 5 µg/mL in data set [1] (E. coli 177); 21 µg/mL in data set [1] (E. coli 178); 11 µg/mL in [1] (E. coli 187); 9 µg/mL in data set [1] (E. coli DH5a). Moreover, the “Average MIC” value is >64 µg/mL in [11] and 13 µg/mL in data set [4]. The minimum inhibitory concentration (MIC) in [1] (E. coli 50, Table 2) is 11 µg/mL; in data set [1] (E. coli 178, Table 2), 21 µg/mL; in [1] (E. coli DH5α, Table 2), 9 µg/mL; in data set [1] (E.coli 177, Table 2), 5 µg/mL; in data set [11], >64 µg/mL; in [2], >64 µg/mL. Also, the figures for the MIC in [3] and in [4] were >64 µg/mL and 13 µg/mL, respectively. In addition, the “activity against E coli strains tested, in words” value in data set [1] (summary of Table 2) is given as “good activity”. Besides, the “antimicrobial activity against Gram positive and negative bacteria, in words” value in data set [10] (listed as 3) is “significantly reduced activity”; in data set [10] (listed as SEQ ID: No 3) it was “very low levels of activity”.
For the compound “SFKWIYKQIKKLWA [SEQ ID NO:5, SFKWIYKQIKKLWA]”, the MIC in data set [1] (E. coli 50, Table 2) came out at 1.3 µg/mL; in data set [1] (E. coli 178, Table 2), 1.3 µg/mL; in data set [1] (E. coli DH5α, Table 2), 2 µg/mL; in data set [1] (E.coli 177, Table 2) it was 2 µg/mL; in [2] it was 4.7 µg/mL; in [4], 1.2 µg/mL. Also, the “haemolytic activity / toxicity, in words” value in data set [5] was “higher levels of haemolytic activity”.
Regarding “SFKWIYKQPKKLWA [SEQ ID NO:21, SFKWIYKQPKKLWA]”, the MIC in [1] (E. coli 50, Table 2) is 64 µg/mL; in data set [1] (E. coli 178, Table 2) it was 64 µg/mL; in data set [1] (E. coli DH5α, Table 2), 26.7 µg/mL; in [1] (E.coli 177, Table 2), 53.3 µg/mL; in [11] it was >64 µg/mL; in data set [3], >64 µg/mL. In addition, the minimum inhibitory concentration (MIC) in [4] was 42.7 µg/mL; in data set [12] it was >64 µg/mL.
Take “SFKWIYKQPKKLWAKKK [SEQ ID NO:23, SFKWIYKQPKKLWAKKK]”: the minimum inhibitory concentration (MIC) in data set [1] (E. coli 50, Table 2) is 18.7 µg/mL; in data set [1] (E. coli 178, Table 2), 26.7 µg/mL; in [1] (E. coli DH5α, Table 2), 13.3 µg/mL; in data set [1] (E.coli 177, Table 2), 16 µg/mL; in data set [11], >64 µg/mL; in data set [3], >64 µg/mL. Moreover, the MIC was 8 µg/mL in data set [4] and >64 µg/mL in data set [12].
In the case of “SFKWPYKQIKKLWA [SEQ ID NO:22, SFKWPYKQIKKLWA]”, the MIC in data set [1] (E. coli 178, Table 2) is 32 µg/mL; in [1] (E. coli DH5α, Table 2), 10.7 µg/mL; in data set [1] (E.coli 177, Table 2) it was 13.3 µg/mL; in data set [3], 64 µg/mL; in data set [4], 16 µg/mL; in data set [12] it was >64 µg/mL.
